# Measured values as given in ChEMBL document CHEMBL4507291 (2021).
# Key:
# [1] = target: Serine/threonine-protein kinase/endoribonuclease IRE1 (Homo sapiens) (UniProt O75460)
# [2] = target: Cyclin-dependent kinase 14 (Homo sapiens) (UniProt O94921)
# [3] = target: Ribosomal protein S6 kinase alpha-1 (Homo sapiens) (UniProt Q15418)
# [4] = target: T1, Serine/threonine-protein kinase BRSK1 (Homo sapiens) (UniProt Q8TDC3)
# T1 sequence (whole entry): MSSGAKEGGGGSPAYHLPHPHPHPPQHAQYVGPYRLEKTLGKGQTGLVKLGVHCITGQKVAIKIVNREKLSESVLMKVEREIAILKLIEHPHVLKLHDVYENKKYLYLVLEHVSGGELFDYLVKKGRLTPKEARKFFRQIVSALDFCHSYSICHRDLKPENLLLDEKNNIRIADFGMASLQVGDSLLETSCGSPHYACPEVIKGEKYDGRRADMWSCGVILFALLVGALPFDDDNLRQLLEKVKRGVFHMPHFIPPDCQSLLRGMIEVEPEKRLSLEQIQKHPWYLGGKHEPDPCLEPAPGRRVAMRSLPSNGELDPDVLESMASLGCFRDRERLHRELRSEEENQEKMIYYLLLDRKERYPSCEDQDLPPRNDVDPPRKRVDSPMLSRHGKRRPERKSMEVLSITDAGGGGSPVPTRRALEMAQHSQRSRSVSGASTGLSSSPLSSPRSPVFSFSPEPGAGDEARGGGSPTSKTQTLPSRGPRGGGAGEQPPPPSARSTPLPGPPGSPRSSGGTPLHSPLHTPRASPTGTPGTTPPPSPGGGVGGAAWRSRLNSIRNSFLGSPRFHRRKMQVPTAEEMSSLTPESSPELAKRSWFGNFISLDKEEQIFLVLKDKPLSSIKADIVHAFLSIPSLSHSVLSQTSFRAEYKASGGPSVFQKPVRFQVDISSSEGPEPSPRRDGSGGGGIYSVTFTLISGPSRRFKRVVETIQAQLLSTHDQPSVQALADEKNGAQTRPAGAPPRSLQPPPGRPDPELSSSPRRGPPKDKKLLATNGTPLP
# [5] = tested on: ALK tyrosine kinase receptor (Homo sapiens), Q9UM73 [C1156Y]
# [6] = target: Serine/threonine-protein kinase 35 (Homo sapiens) (UniProt Q8TDR2)
# [7] = target: 3-phosphoinositide-dependent protein kinase 1 (Homo sapiens) (UniProt O15530)
# [8] = target: Homeodomain-interacting protein kinase 3 (Homo sapiens) (UniProt Q9H422)
# [9] = tested on: Proto-oncogene tyrosine-protein kinase receptor Ret (Homo sapiens), P07949 [V804L]
# [10] = target: Activin receptor type-2A (Homo sapiens) (UniProt P27037)
# [11] = target: Sigma non-opioid intracellular receptor 1 (Homo sapiens, UniProt Q99720); conditions: Compound concentration 10.0 uM
# [12] = target: Serine/threonine-protein kinase tousled-like 2 (Homo sapiens) (UniProt Q86UE8)
# [13] = target: Rho-associated protein kinase 1 (Homo sapiens) (UniProt Q13464)
# [14] = target: Phosphatidylinositol 4,5-bisphosphate 3-kinase catalytic subunit gamma isoform (Homo sapiens) (UniProt P48736)
# [15] = target: Tyrosine-protein kinase HCK (Homo sapiens) (UniProt P08631)
# [16] = target: Calcium/calmodulin-dependent protein kinase type II subunit delta (Homo sapiens) (UniProt Q13557)
# [17] = target: Serine/threonine-protein kinase Nek5 (Homo sapiens) (UniProt Q6P3R8)
# [18] = target: Serine/threonine-protein kinase PLK3 (Homo sapiens) (UniProt Q9H4B4)
# [19] = target: Serine/threonine-protein kinase 38 (Homo sapiens) (UniProt Q15208)
# [20] = target: Ephrin type-A receptor 4 (Homo sapiens) (UniProt P54764)
# [21] = target: Serine/threonine-protein kinase Nek6 (Homo sapiens) (UniProt Q9HC98)
# [22] = tested on: Tyrosine-protein kinase ABL1 (Homo sapiens), P00519 [Q252H]
# [23] = target: Casein kinase I isoform gamma-3 (Homo sapiens) (UniProt Q9Y6M4)
# [24] = target: Serine/threonine-protein kinase SIK1 (Homo sapiens) (UniProt P57059)
# [25] = Compound concentration 1000.0 nM
# [26] = Compound concentration 100.0 nM
# Chain of Sigma non-opioid intracellular receptor 1 (Q99720 whole entry): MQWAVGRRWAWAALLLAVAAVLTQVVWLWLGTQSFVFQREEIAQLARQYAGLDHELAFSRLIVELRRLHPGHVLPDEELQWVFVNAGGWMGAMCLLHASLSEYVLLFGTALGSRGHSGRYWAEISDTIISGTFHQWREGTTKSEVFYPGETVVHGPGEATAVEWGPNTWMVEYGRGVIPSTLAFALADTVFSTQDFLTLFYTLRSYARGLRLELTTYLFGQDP
# Chain of Proto-oncogene tyrosine-protein kinase receptor Ret (Homo sapiens), P07949 [V804L] (P07949 whole entry V804L): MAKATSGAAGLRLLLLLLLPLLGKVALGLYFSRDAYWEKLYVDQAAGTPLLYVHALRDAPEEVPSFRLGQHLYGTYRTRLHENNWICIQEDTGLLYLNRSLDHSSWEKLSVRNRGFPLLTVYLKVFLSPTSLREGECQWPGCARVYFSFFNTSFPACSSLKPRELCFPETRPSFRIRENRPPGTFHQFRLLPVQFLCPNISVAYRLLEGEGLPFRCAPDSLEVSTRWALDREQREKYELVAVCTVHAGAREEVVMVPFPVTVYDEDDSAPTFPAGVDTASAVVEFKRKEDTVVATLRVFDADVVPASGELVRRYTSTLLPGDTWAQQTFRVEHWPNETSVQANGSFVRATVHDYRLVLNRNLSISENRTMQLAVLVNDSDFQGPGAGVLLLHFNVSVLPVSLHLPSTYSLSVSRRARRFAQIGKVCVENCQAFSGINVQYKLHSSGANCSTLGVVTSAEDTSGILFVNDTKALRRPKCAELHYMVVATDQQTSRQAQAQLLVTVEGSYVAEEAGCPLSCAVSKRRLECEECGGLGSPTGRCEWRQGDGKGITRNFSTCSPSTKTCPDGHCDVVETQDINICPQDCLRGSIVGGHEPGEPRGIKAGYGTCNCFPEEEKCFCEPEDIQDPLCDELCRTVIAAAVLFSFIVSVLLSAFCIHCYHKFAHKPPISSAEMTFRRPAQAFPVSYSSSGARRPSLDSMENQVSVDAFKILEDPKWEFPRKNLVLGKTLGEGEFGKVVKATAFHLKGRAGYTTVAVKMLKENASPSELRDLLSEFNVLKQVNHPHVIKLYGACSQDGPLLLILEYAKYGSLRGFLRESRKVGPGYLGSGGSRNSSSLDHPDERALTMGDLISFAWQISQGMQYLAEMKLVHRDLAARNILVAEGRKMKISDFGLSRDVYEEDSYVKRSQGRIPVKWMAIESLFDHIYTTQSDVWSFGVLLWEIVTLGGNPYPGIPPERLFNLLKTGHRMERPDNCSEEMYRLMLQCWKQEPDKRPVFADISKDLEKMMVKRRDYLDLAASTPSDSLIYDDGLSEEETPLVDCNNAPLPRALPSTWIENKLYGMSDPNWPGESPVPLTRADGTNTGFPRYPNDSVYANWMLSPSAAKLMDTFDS
# Chain of 3-phosphoinositide-dependent protein kinase 1 (Homo sapiens) (O15530 whole entry): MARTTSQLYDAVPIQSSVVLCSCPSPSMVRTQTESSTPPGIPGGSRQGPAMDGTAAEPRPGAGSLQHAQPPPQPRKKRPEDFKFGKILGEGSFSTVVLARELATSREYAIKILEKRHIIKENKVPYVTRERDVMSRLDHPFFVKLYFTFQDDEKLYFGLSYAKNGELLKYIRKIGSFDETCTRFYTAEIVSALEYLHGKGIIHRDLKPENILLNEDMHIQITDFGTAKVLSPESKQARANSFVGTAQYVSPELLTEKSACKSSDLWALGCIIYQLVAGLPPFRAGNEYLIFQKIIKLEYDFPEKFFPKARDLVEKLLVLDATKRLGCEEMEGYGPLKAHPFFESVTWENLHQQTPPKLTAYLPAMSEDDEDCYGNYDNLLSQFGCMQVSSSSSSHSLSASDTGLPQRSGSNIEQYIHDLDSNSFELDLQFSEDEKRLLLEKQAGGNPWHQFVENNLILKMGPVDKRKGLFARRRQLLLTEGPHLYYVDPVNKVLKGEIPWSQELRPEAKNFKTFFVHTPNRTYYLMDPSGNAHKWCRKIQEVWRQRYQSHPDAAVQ
# Chain of ALK tyrosine kinase receptor (Homo sapiens), Q9UM73 [C1156Y] (Q9UM73 whole entry C1156Y, looked up): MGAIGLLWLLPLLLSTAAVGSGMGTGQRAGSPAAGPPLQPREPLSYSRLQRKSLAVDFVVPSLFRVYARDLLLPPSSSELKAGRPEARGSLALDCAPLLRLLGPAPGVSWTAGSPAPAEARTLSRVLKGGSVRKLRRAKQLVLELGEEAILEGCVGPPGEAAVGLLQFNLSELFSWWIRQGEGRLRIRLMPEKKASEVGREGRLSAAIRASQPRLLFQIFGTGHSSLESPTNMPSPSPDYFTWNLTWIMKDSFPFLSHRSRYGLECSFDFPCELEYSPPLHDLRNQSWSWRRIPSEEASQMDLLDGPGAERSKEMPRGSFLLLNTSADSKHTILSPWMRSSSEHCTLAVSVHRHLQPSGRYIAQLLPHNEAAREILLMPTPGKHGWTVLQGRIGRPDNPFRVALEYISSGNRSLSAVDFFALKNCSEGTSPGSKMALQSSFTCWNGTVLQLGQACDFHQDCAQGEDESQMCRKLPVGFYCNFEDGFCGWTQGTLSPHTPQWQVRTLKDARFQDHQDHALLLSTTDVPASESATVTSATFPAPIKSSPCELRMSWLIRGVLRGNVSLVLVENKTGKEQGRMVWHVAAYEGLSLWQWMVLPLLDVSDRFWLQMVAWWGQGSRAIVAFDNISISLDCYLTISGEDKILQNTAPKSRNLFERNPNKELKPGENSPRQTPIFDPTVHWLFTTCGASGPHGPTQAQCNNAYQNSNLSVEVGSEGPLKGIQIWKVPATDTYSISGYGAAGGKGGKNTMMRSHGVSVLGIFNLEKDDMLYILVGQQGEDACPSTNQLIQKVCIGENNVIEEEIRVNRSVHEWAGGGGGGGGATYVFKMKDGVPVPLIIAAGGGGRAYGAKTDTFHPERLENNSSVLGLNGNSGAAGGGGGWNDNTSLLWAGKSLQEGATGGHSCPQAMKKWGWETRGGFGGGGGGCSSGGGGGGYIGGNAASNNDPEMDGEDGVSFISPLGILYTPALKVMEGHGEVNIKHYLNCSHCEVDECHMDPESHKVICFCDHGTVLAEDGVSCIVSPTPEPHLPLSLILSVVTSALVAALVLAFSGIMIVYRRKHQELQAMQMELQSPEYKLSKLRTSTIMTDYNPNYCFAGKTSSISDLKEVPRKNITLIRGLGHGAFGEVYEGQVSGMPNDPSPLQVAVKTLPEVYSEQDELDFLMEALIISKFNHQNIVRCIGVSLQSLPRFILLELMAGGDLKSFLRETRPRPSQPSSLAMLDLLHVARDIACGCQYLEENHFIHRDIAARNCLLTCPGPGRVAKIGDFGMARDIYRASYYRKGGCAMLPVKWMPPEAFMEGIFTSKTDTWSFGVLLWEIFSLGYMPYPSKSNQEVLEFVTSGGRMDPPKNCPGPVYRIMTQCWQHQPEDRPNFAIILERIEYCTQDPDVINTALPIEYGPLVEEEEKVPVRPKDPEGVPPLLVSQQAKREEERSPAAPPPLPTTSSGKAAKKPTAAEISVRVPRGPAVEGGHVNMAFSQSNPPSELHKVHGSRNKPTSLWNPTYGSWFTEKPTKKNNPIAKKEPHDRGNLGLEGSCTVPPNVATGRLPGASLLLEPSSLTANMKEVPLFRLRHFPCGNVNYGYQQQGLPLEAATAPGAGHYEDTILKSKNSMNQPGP
# Chain of Phosphatidylinositol 4,5-bisphosphate 3-kinase catalytic subunit gamma isoform (Homo sapiens) (P48736 whole entry, looked up, canonical isoform): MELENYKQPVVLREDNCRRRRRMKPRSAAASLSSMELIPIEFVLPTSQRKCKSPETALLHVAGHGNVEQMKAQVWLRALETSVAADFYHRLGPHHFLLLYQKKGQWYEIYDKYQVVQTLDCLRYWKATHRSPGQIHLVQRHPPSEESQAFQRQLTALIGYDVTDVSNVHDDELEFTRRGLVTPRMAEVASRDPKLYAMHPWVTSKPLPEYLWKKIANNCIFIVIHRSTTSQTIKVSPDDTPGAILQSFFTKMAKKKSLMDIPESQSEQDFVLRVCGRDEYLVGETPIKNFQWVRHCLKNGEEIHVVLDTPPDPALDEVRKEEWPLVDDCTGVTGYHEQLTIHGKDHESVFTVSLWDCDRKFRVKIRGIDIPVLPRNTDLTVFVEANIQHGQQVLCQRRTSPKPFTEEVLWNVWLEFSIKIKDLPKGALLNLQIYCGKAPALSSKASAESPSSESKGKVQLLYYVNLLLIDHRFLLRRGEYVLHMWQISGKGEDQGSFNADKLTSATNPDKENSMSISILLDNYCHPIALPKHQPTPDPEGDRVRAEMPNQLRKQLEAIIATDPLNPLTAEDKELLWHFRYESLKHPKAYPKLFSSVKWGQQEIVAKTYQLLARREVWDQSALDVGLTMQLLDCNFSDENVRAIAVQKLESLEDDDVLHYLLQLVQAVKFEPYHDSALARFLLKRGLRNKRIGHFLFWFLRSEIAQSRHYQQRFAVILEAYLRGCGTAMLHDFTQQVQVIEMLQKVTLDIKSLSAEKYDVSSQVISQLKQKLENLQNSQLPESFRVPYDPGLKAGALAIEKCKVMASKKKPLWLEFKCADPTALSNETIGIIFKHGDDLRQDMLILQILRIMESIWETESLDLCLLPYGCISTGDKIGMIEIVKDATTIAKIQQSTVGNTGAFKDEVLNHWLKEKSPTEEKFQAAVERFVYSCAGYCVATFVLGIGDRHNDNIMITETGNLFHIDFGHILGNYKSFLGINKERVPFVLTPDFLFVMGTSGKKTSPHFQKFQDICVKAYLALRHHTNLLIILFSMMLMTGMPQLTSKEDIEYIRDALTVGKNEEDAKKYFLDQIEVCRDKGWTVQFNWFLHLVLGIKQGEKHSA
# Chain of Casein kinase I isoform gamma-3 (Homo sapiens) (Q9Y6M4 whole entry, looked up, canonical isoform): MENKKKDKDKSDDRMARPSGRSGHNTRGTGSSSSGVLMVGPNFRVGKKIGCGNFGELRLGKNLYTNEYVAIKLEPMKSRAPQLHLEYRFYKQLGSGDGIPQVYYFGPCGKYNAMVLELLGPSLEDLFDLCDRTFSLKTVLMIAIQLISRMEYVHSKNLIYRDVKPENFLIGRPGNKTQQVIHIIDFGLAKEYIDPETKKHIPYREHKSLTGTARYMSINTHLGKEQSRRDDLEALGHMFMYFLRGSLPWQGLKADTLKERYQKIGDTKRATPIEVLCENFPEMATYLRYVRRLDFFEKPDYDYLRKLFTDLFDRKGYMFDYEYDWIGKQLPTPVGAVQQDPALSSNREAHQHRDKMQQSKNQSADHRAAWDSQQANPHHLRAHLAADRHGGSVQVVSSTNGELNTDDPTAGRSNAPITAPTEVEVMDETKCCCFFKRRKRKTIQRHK
smiles,measurement,setting,value
C[C@@H]1CN(c2cc(-c3nn(C)c4ccc(OC5(C)CC5)cc34)ncn2)C[C@H](C)O1 [MLi-2-NC],residual activity,[1]; [25],69%
same,residual activity,[2]; [25],100%
same,residual activity,[3]; [25],100%
same,residual activity,[4]; [25],97%
same,residual activity,[5]; [25],82%
same,residual activity,[6]; [25],100%
same,residual activity,[7]; [25],100%
same,residual activity,[8]; [25],91%
same,residual activity,[9]; [25],72%
same,residual activity,[10]; [25],100%
same,inhibition,[11],58.2%
same,residual activity,[12]; [25],97%
same,residual activity,[13]; [25],100%
same,residual activity,[14]; [25],100%
same,residual activity,[15]; [25],96%
same,residual activity,[16]; [25],88%
same,residual activity,[17]; [25],100%
same,residual activity,[18]; [25],84%
same,residual activity,[19]; [25],57%
same,residual activity,[20]; [25],100%
same,residual activity,[21]; [25],100%
same,residual activity,[22]; [25],58%
same,residual activity,[23]; [25],100%
same,residual activity,[24]; [25],96%
C[C@@H]1CN(c2cc(-c3n[nH]c4ccc(OC5(C)CC5)cc34)ncn2)C[C@H](C)O1 [MLi-2],residual activity,[1]; [26],79%
same,residual activity,[2]; [26],100%
same,residual activity,[3]; [26],93%
same,residual activity,[4]; [26],96%
same,residual activity,[5]; [26],89%
same,residual activity,[6]; [26],85%
same,residual activity,[7]; [26],78%
same,residual activity,[8]; [26],73%
same,residual activity,[9]; [26],98%
same,residual activity,[10]; [26],94%
same,inhibition,[11],35.9%
same,residual activity,[12]; [26],100%
same,residual activity,[13]; [26],80%
same,residual activity,[14]; [26],72%
same,residual activity,[15]; [26],84%
same,residual activity,[16]; [26],100%
same,residual activity,[17]; [26],100%
same,residual activity,[18]; [26],84%
same,residual activity,[19]; [26],87%
same,residual activity,[20]; [26],89%
same,residual activity,[21]; [26],100%
same,residual activity,[22]; [26],64%
same,residual activity,[23]; [26],95%
same,residual activity,[24]; [26],100%
